Laboratory results from patent US9440941B2, “Substituted chroman-6-yloxy-cycloalkanes and their use as pharmaceuticals” (SANOFI, priority 2013, dated 2016).

Tested on: Sprague-Dawley rats
Experiment: In vivo method for determining the effect on heart contractility (left ventricular dp/dtmax)
Set-up: species or system rat
Settings: anesthetized male Sprague-Dawley rats, intravenous, vs solvent control
Experimental: B) In Vivo Method for Determining the Effect on Heart Contractility
Adult male Sprague-Dawley rats (Harlan Winkelmann, Borchen, Germany) weighing 340 to 370 g were anesthetized with pentobarbital (100 mg/kg i.p.) and ventilated with a mixture of oxygen (40%) and room air (60%) at a tidal volume of 1 ml/100 g at 60 breaths/min. Body temperature was maintained at 36.5±0.3° C. with a heating lamp and was monitored with a rectal thermo sensor. Systemic blood pressure was measured in the left carotid artery using a pressure transducer (Combitrans; B. Braun Melsungen AG, Melsungen, Germany) connected to a DC-bridge-amplifier (PLUGSYS/ADC Type 663; Harvard Apparatus GmbH, March-Hugstetten, Germany). The electrocardiogram was measured as lead II via subcutaneously placed electrodes connected to a Heart-Rate-Module (PLUGSYS/HRM Type 669; Harvard Apparatus GmbH, March-Hugstetten, Germany). A micro-tip catheter (2 French, SPR-320; Millar Instruments, Houston, Tex., USA) was placed via the right carotid artery into the left ventricle, and the left ventricular pressure (LVP) and the enddiastolic pressure (EDP) were continuously measured. Registration of the hemodynamic data was performed via an analog digital converter by a personal computer using Notocord software (HEM version 3.5). Left ventricular contractility (dp/dtmax) and relaxation (dp/dtmin) were calculated from the LVP signal. For intravenous administration of the test compounds, the left jugular vein was prepared and a PP-50 catheter was inserted. Test compounds were administered either by intravenous bolus injection or by intravenous infusion by means of an infusion pump (Unita; B. Braun Melsungen AG, Melsungen, Germany). Test compounds were dissolved in a mixture of Glycofurol (75%) and Cremophor (25%), and the solution was further diluted with distilled water (1:4). In a typical experiment, several dosages of the test compound were administered subsequently at increasing doses. Statistical significance of the data obtained with drug vs control experiments, in which solvent was administered, was evaluated with the 2-sided ANOVA test (program Everstat). Increases in left ventricular contractility (percent increase) by example compounds are given in Table 3 in comparison to control experiments in which solvent was administered.

| Structure (SMILES) | Contractility increase (left ventricular contractility) (0.1 mg/kg) [%] | Contractility increase (left ventricular contractility) (0.3 mg/kg) [%] | Contractility increase (left ventricular contractility) (1.0 mg/kg) [%] |
| --- | --- | --- | --- |
| Cc1ccccc1C1CCc2cc(O[C@H]3CC[C@H](N)CC3)ccc2O1.Cl (stereo partly drawn) [Example 156, trans-4-(2-o-Tolyl-chroman-6-yloxy)-cyclohexylamine] | 44 | 110 | 171 |
| Cc1ccccc1C1CCc2cc(OC3CCC(C(=O)NCc4ccno4)CC3)ccc2O1 (stereo not drawn) [Example 158, N-(Isoxazol-5-ylmethyl)-4-(2-o-tolyl-chroman-6-yloxy)-cyclohexanecarboxamide] | 106 | 139 | 146 |
| NCC(=O)N[C@H]1CC[C@H](Oc2ccc3c(c2)CC[C@@H](c2ccccc2)O3)CC1 [Example 159, 2-Amino-N-[trans-4-((S)-2-phenyl-chroman-6-yloxy)-cyclohexyl]-acetamide] | 46 | 104 | 140 |
| Cc1ccccc1C1CCc2cc(OC3CCC(NCc4c(C)nn(C)c4C)CC3)ccc2O1 (stereo not drawn) [Example 177, 4-(2-o-Tolyl-chroman-6-yloxy)-N-(1,3,5-trimethylpyrazol-4-ylmethyl)-cyclohexylamine] | 29 | 81 | 134 |
| O=C(N[C@H]1CC[C@H](Oc2ccc3c(c2)CCC(c2ccccc2)O3)CC1)[C@@H]1CCCN1 (stereo partly drawn) [Example 180, (S)—N-[trans-4-(2-Phenyl-chroman-6-yloxy)-cyclohexyl]-pyrrolidine-2-carboxamide] | 26 | 66 | 99 |
| Cc1ccccc1[C@@H]1CCc2cc(O[C@H]3CC[C@H](C(=O)NCCO)CC3)ccc2O1 [Example 268, trans-4-((S)-2-o-tolyl-chroman-6-yloxy)-cyclohexanecarboxylic acid (2-hydroxy-ethyl)-amide] | 108 | 154 | 179 |
| Cc1ccccc1[C@@H]1CCc2cc(O[C@H]3CC[C@H](C(=O)NCCOP(=O)([O-])[O-])CC3)ccc2O1.[Na+].[Na+] [Example 303, Phosphoric acid mono-(2-{[trans-4-((S)-2-o-tolyl-chroman-6-yloxy)-cyclohexanecarbonyl]-amino}-ethyl) ester disodium salt] | 69 | 114 | 172 |
